In a compilation of properties of binary mixtures (doi:10.1016/j.molliq.2020.112644):

Test: xn = mol fraction of the nth substance listed
Conditions: 100 kPa, x2 = 0.571

O=C1c2ccccc2C(=O)C1(O)O + CCCC[N+](CCCC)(CCCC)CCCC.O=S(=O)([O-])O
Conditions | electrical conductivity [S/m] | speed of sound [m/s] | viscosity [mPa·s]
293.15 K | – | 2074.6 | –
298.15 K | – | 2026.2 | –
303.15 K | – | 1974.8 | –
308.15 K | 0.0001 | 1920.7 | –
313.15 K | 0.0002 | 1859 | –
318.15 K | 0.0003 | 1802.5 | –
323.15 K | 0.0006 | 1740.4 | 48000
333.15 K | 0.0018 | 1629.2 | 15800
338.15 K | – | – | 11000
